# Data taken from patent US7322965B2, “Infection-resistant medical devices” (priority 2002, dated 2008).
# Read-outs that look alike come from different tables or passages of the source.
# How the values were obtained:
# Assay type in all cases: cell-based
# S. epidermidis RP62A = test: Time course adherence assay (prophylactic and delayed treatment); settings: Staphylococcus epidermidis, read-out: Percent inhibition of bacterial adherence relative to controls
# Experimental: (§1) Drug effects on bacterial adherence were measured 18 hours after treatment initiation using a quantitative spectrophotometric assay.
# (§2) Relative inhibition of adherence was expressed by the following equation: (OD of control well−OD of treated well/OD of control well)×100, where OD is the mean optical density of six replicate wells from two separate experiments (three replicates per experiment). Control was defined as infected, drug-free cultures.
# (§3) The primary efficacy variable in this study was the measurement of adherent bacteria to polystyrene surfaces after 18 hours to 24 hours of growth. To determine whether statistically significant differences existed between treatments (4×MIC, 2×MIC, MIC, and ½ MIC) compared with the infected-nontreated controls, multiple comparisons according to Dunnett's test (Montgomery, Design and Analysis of Experiments (1991)) were applied for each clinical strain. Differences were considered statistically significant when p<0.05.
# S. epidermidis UC-20208 = test: as above; settings: for inhibition at 1 µg/mL / inhibition at 2 µg/mL / inhibition at 4 µg/mL / inhibition at 8 µg/mL: Staphylococcus epidermidis, read-out: Percent inhibition of bacterial adherence relative to controls; for Mean OD550: UC-20208
# Experimental: as §1, §2, §3
# [1] = tested on: S. epidermidis isolates (UC-20207, UC-20208, and RP62A); test: Time course adherence assay, summary over three S. epidermidis isolates; settings: for mean inhibitory effects on staphylococcal adherence: subtherapeutic (one-half MIC)
# Experimental: as §1, §2, §3
smiles,measurement,setting,value
"CC(=O)NC[C@H]1CN(c2ccc(N3CCOCC3)c(F)c2)C(=O)O1 [Linezolid, (S)-N-[[3-[3-fluoro-4-(4-morpholinyl)phenyl]-2-oxo-5-oxazolidinyl]methyl]acetamide]",inhibition at 4 µg/mL,S. epidermidis RP62A; 4 h,99.8%
same,inhibition at 8 µg/mL,S. epidermidis RP62A; 4 h,100%
same,inhibition at 1 µg/mL,S. epidermidis RP62A; 6 h,78.4%
same,inhibition at 2 µg/mL,S. epidermidis RP62A; 6 h,93.4%
same,inhibition at 4 µg/mL,S. epidermidis RP62A; 6 h,93.5%
same,inhibition at 8 µg/mL,S. epidermidis RP62A; 6 h,98.4%
same,inhibition at 1 µg/mL,"S. epidermidis UC-20208; UC20208, 0 h",99.9%
same,inhibition at 2 µg/mL,"S. epidermidis UC-20208; UC20208, 0 h",99.9%
same,inhibition at 4 µg/mL,"S. epidermidis UC-20208; UC20208, 0 h",99.8%
same,inhibition at 8 µg/mL,"S. epidermidis UC-20208; UC20208, 0 h",100%
same,inhibition at 1 µg/mL,"S. epidermidis UC-20208; UC20208, 2 h",99.8%
same,inhibition at 2 µg/mL,"S. epidermidis UC-20208; UC20208, 2 h",99.8%
same,inhibition at 4 µg/mL,"S. epidermidis UC-20208; UC20208, 2 h",99.7%
same,inhibition at 8 µg/mL,"S. epidermidis UC-20208; UC20208, 2 h",99.7%
same,inhibition at 1 µg/mL,"S. epidermidis UC-20208; UC20208, 4 h",22.1%
same,inhibition at 2 µg/mL,"S. epidermidis UC-20208; UC20208, 4 h",100%
same,inhibition at 4 µg/mL,"S. epidermidis UC-20208; UC20208, 4 h",100%
same,inhibition at 8 µg/mL,"S. epidermidis UC-20208; UC20208, 4 h",100%
same,inhibition at 1 µg/mL,"S. epidermidis UC-20208; UC20208, 6 h",0%
same,inhibition at 2 µg/mL,"S. epidermidis UC-20208; UC20208, 6 h",0%
same,inhibition at 4 µg/mL,"S. epidermidis UC-20208; UC20208, 6 h",56.8%
same,inhibition at 8 µg/mL,"S. epidermidis UC-20208; UC20208, 6 h",89.1%
same,Mean OD550,"S. epidermidis UC-20208; 1.0 μg/ml, treatment 0 h post-infection",0.001 ± 0.002
same,Mean OD550,"S. epidermidis UC-20208; 1.0 μg/ml, treatment 2 h post-infection",0.003 ± 0.001
same,Mean OD550,"S. epidermidis UC-20208; 1.0 μg/ml, treatment 4 h post-infection",0.856 ± 0.472
same,Mean OD550,"S. epidermidis UC-20208; 1.0 μg/ml, treatment 6 h post-infection",1.127 ± 0.133
same,Mean OD550,"S. epidermidis UC-20208; 2.0 μg/ml (MIC), treatment 0 h post-infection",0.001 ± 0.001
same,Mean OD550,"S. epidermidis UC-20208; 2.0 μg/ml (MIC), treatment 2 h post-infection",0.003 ± 0.000
same,Mean OD550,"S. epidermidis UC-20208; 2.0 μg/ml (MIC), treatment 4 h post-infection",0.000 ± 0.003
same,Mean OD550,"S. epidermidis UC-20208; 2.0 μg/ml (MIC), treatment 6 h post-infection",1.602 ± 0.300
same,Mean OD550,"S. epidermidis UC-20208; 4.0 μg/ml, treatment 0 h post-infection",0.002 ± 0.001
same,Mean OD550,"S. epidermidis UC-20208; 4.0 μg/ml, treatment 2 h post-infection",0.004 ± 0.001
same,Mean OD550,"S. epidermidis UC-20208; 4.0 μg/ml, treatment 4 h post-infection",0.000 ± 0.001
same,Mean OD550,"S. epidermidis UC-20208; 4.0 μg/ml, treatment 6 h post-infection",0.363 ± 0.280
same,Mean OD550,"S. epidermidis UC-20208; 8.0 μg/ml, treatment 0 h post-infection",0.000 ± 0.001
same,Mean OD550,"S. epidermidis UC-20208; 8.0 μg/ml, treatment 2 h post-infection",0.004 ± 0.001
same,Mean OD550,"S. epidermidis UC-20208; 8.0 μg/ml, treatment 4 h post-infection",0.000 ± 0.003
same,Mean OD550,"S. epidermidis UC-20208; 8.0 μg/ml, treatment 6 h post-infection",0.092 ± 0.053
same,inhibitory effects on adherence,"[1]; 4×MIC, 6-hour delay, mean of three strains",87.5%±11.7
same,mean inhibitory effects on staphylococcal adherence,"[1]; 2 h delayed treatment, mean of three strains",99.1%±1.4
same,mean inhibitory effects on staphylococcal adherence,"[1]; 4 h delayed treatment, mean of three strains",63.5%±39.2
same,anti-adhesion activity,"[1]; therapeutic levels (≧MIC), 2- and 4-hour deferred treatments",potent anti-adhesion activity
